Data reported in publication PMC9585082, “Structural insight into the ligand binding mechanism of aryl hydrocarbon receptor” (Nature Communications, 2022).

Tests used:
mAHR = molecular target: T1, mAHR (Mus musculus, UniProt P30561); experiment: DRE luciferase reporter assay in HEK293T expressing mAHR (agonist at […]); assay type: cell-based
T1 construct: gene Ahr; full-length
T1 sequence (P30561 10-848): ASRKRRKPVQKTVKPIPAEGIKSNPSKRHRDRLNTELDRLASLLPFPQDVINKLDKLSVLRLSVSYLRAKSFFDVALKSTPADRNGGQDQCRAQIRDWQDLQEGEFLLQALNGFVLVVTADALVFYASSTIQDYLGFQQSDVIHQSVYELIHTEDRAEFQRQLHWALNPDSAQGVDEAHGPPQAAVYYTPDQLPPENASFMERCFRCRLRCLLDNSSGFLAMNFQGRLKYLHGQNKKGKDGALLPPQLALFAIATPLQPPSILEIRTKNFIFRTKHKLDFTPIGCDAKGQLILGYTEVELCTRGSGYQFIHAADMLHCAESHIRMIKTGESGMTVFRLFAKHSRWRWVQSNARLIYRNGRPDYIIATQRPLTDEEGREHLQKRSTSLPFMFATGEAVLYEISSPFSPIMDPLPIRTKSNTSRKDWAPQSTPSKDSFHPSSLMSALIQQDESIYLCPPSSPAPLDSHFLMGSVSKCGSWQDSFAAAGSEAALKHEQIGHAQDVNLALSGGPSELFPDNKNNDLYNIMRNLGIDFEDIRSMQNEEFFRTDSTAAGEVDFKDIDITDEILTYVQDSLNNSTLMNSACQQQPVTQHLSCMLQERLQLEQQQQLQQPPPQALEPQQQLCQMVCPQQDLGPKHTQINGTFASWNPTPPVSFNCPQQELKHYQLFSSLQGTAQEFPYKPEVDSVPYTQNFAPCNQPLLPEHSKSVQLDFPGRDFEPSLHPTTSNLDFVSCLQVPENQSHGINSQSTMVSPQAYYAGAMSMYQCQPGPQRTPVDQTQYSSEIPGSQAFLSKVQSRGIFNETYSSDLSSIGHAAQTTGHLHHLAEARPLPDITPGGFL
Excerpt: FICZ, βNF and BaP were supplied

dAHR PAS-B = molecular target: T2, dAHR PAS-B (Drosophila melanogaster, UniProt O61543, M284C/Y336L); experiment: label-free MST; assay type: binding
T2 construct: gene ss; PAS-B domain (residues 264–381)
T2 sequence (O61543 entry or part of it M284C/Y336L): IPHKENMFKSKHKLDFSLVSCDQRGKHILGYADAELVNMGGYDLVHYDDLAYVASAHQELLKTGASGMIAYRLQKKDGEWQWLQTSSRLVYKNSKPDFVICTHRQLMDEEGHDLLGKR

Row | SMILES | DRE luciferase reporter assay in HEK293T expressing mAHR (agonist at 200 nM) (mAHR) | Kd (dAHR PAS-B) [nM] | DRE luciferase reporter assay in HEK293T expressing mAHR (agonist at 500 nM) (mAHR)
1 | c1ccc2c(c1)cc1ccc3cccc4ccc2c1c34 [BaP] | transactivation of mAHR in HEK293T cells in the presence or absence of agonists. FICZ, βNF and BaP were supplied | – | –
2 | O=Cc1c2[nH]c3ccccc3c2cc2[nH]c3ccccc3c12 [FICZ] | transactivation of mAHR in HEK293T cells in the presence or absence of agonists. FICZ, βNF and BaP were supplied | ~800 | –
3 | O=c1cc(-c2ccccc2)oc2ccc3ccccc3c12 [βNF] | – | ~400 | transactivation of mAHR in HEK293T cells in the presence or absence of agonists. FICZ, βNF and BaP were supplied
